# Assay results: the NIST ThermoML archive (doi:10.1021/je034290l)
# ± gives the expanded uncertainty stated by the source.
# Assays:
# [1] = refractive index (Na D-line) (dimensionless); conditions: 318.15 K; 101.33 kPa; Liquid; Standard Abbe refractometry
# [2] = Liquid
structure (smiles),measurement,setting,value
COC(C)=O [methyl ethanoate],refractive index,[1],1.3486 ± 0.0007
same,vapor or sublimation pressure,[2]; 305.21 K,39.85 ± 0.69 kPa
same,vapor or sublimation pressure,[2]; 305.85 K,41.28 ± 0.7 kPa
same,vapor or sublimation pressure,[2]; 306.84 K,42.46 ± 0.71 kPa
same,vapor or sublimation pressure,[2]; 307.84 K,44.04 ± 0.71 kPa
same,vapor or sublimation pressure,[2]; 308.13 K,45.37 ± 0.72 kPa
same,vapor or sublimation pressure,[2]; 308.75 K,46.97 ± 0.73 kPa
same,vapor or sublimation pressure,[2]; 309.72 K,48.14 ± 0.73 kPa
same,vapor or sublimation pressure,[2]; 310.17 K,49.41 ± 0.74 kPa
same,vapor or sublimation pressure,[2]; 311.19 K,50.42 ± 0.75 kPa
same,vapor or sublimation pressure,[2]; 311.59 K,51.81 ± 0.75 kPa
same,vapor or sublimation pressure,[2]; 312.76 K,53.53 ± 0.76 kPa
same,vapor or sublimation pressure,[2]; 313.38 K,54.58 ± 0.77 kPa
same,vapor or sublimation pressure,[2]; 313.74 K,55.9 ± 0.77 kPa
same,vapor or sublimation pressure,[2]; 314.18 K,57.49 ± 0.78 kPa
same,vapor or sublimation pressure,[2]; 314.88 K,58.59 ± 0.79 kPa
same,vapor or sublimation pressure,[2]; 315.56 K,60.05 ± 0.79 kPa
same,vapor or sublimation pressure,[2]; 316.06 K,61.43 ± 0.8 kPa
same,vapor or sublimation pressure,[2]; 316.57 K,62.5 ± 0.81 kPa
same,vapor or sublimation pressure,[2]; 317.05 K,63.9 ± 0.81 kPa
same,mass density,"[2]; 318.15 K, 101.33 kPa",900.19 ± 0.36 kg/m3
same,vapor or sublimation pressure,[2]; 318.34 K,66.51 ± 0.83 kPa
same,vapor or sublimation pressure,[2]; 318.69 K,67.81 ± 0.83 kPa
same,vapor or sublimation pressure,[2]; 319.37 K,69.23 ± 0.84 kPa
same,vapor or sublimation pressure,[2]; 319.93 K,70.45 ± 0.85 kPa
same,vapor or sublimation pressure,[2]; 320.11 K,71.01 ± 0.85 kPa
same,vapor or sublimation pressure,[2]; 320.34 K,71.9 ± 0.85 kPa
same,vapor or sublimation pressure,[2]; 320.65 K,73.35 ± 0.86 kPa
same,vapor or sublimation pressure,[2]; 321.34 K,74.58 ± 0.87 kPa
same,vapor or sublimation pressure,[2]; 321.46 K,75.27 ± 0.87 kPa
same,vapor or sublimation pressure,[2]; 321.72 K,76.13 ± 0.87 kPa
same,vapor or sublimation pressure,[2]; 322.07 K,77.22 ± 0.88 kPa
same,vapor or sublimation pressure,[2]; 322.36 K,77.87 ± 0.88 kPa
same,vapor or sublimation pressure,[2]; 322.62 K,78.83 ± 0.89 kPa
same,vapor or sublimation pressure,[2]; 323.07 K,80.15 ± 0.89 kPa
same,vapor or sublimation pressure,[2]; 323.49 K,81.23 ± 0.9 kPa
same,vapor or sublimation pressure,[2]; 324.29 K,82.59 ± 0.91 kPa
same,vapor or sublimation pressure,[2]; 324.58 K,83.84 ± 0.91 kPa
same,vapor or sublimation pressure,[2]; 324.95 K,85.23 ± 0.92 kPa
same,vapor or sublimation pressure,[2]; 325.33 K,86.76 ± 0.93 kPa
same,vapor or sublimation pressure,[2]; 325.71 K,87.86 ± 0.93 kPa
same,vapor or sublimation pressure,[2]; 326.25 K,89.23 ± 0.94 kPa
same,vapor or sublimation pressure,[2]; 326.63 K,90.98 ± 0.95 kPa
same,vapor or sublimation pressure,[2]; 327.08 K,92.06 ± 0.95 kPa
same,vapor or sublimation pressure,[2]; 327.54 K,93.46 ± 0.96 kPa
same,vapor or sublimation pressure,[2]; 328 K,94.82 ± 0.97 kPa
same,vapor or sublimation pressure,[2]; 328.17 K,96.1 ± 0.98 kPa
same,vapor or sublimation pressure,[2]; 328.96 K,97.67 ± 0.98 kPa
same,vapor or sublimation pressure,[2]; 329.38 K,99.14 ± 0.99 kPa
same,vapor or sublimation pressure,[2]; 329.55 K,100.18 ± 0.99 kPa
same,vapor or sublimation pressure,[2]; 329.86 K,101.32 ± 1 kPa
same,vapor or sublimation pressure,[2]; 330.09 K,102.6 ± 1 kPa
same,vapor or sublimation pressure,[2]; 330.43 K,104.14 ± 1 kPa
same,vapor or sublimation pressure,[2]; 330.97 K,105.19 ± 1 kPa
same,vapor or sublimation pressure,[2]; 331.43 K,106.75 ± 1 kPa
same,vapor or sublimation pressure,[2]; 331.76 K,107.92 ± 1 kPa
same,vapor or sublimation pressure,[2]; 332.06 K,109.42 ± 1 kPa
same,vapor or sublimation pressure,[2]; 332.52 K,110.71 ± 1.1 kPa
same,vapor or sublimation pressure,[2]; 332.77 K,112.16 ± 1.1 kPa
same,vapor or sublimation pressure,[2]; 333.1 K,113.39 ± 1.1 kPa
same,vapor or sublimation pressure,[2]; 333.6 K,114.47 ± 1.1 kPa
same,vapor or sublimation pressure,[2]; 333.94 K,115.87 ± 1.1 kPa
same,vapor or sublimation pressure,[2]; 334.06 K,117.43 ± 1.1 kPa
same,vapor or sublimation pressure,[2]; 334.27 K,118.52 ± 1.1 kPa
same,vapor or sublimation pressure,[2]; 334.73 K,120.12 ± 1.1 kPa
same,vapor or sublimation pressure,[2]; 335.06 K,121.46 ± 1.1 kPa
same,vapor or sublimation pressure,[2]; 335.23 K,122.57 ± 1.1 kPa
same,vapor or sublimation pressure,[2]; 335.73 K,123.95 ± 1.1 kPa
same,vapor or sublimation pressure,[2]; 336.07 K,125.35 ± 1.1 kPa
same,vapor or sublimation pressure,[2]; 336.48 K,126.88 ± 1.1 kPa
same,vapor or sublimation pressure,[2]; 336.86 K,127.85 ± 1.1 kPa
same,vapor or sublimation pressure,[2]; 337.19 K,129.37 ± 1.1 kPa
same,vapor or sublimation pressure,[2]; 337.53 K,130.87 ± 1.1 kPa
same,vapor or sublimation pressure,[2]; 337.78 K,131.93 ± 1.1 kPa
same,vapor or sublimation pressure,[2]; 337.9 K,133.48 ± 1.2 kPa
same,vapor or sublimation pressure,[2]; 338.15 K,134.72 ± 1.2 kPa
same,vapor or sublimation pressure,[2]; 338.66 K,136.16 ± 1.2 kPa
same,vapor or sublimation pressure,[2]; 338.82 K,137.37 ± 1.2 kPa
same,vapor or sublimation pressure,[2]; 339.07 K,138.56 ± 1.2 kPa
same,vapor or sublimation pressure,[2]; 339.41 K,140.07 ± 1.2 kPa
same,vapor or sublimation pressure,[2]; 339.66 K,141.45 ± 1.2 kPa
same,vapor or sublimation pressure,[2]; 339.95 K,142.53 ± 1.2 kPa
same,vapor or sublimation pressure,[2]; 340.33 K,144.04 ± 1.2 kPa
same,vapor or sublimation pressure,[2]; 340.49 K,145.51 ± 1.2 kPa
same,vapor or sublimation pressure,[2]; 340.95 K,146.43 ± 1.2 kPa
same,vapor or sublimation pressure,[2]; 341.08 K,147.88 ± 1.2 kPa
same,vapor or sublimation pressure,[2]; 341.45 K,149.13 ± 1.2 kPa
same,vapor or sublimation pressure,[2]; 341.79 K,150.58 ± 1.2 kPa
same,vapor or sublimation pressure,[2]; 342 K,151.93 ± 1.2 kPa
same,vapor or sublimation pressure,[2]; 342.37 K,153.34 ± 1.3 kPa
same,vapor or sublimation pressure,[2]; 342.46 K,154.61 ± 1.3 kPa
same,vapor or sublimation pressure,[2]; 342.85 K,155.92 ± 1.3 kPa
same,vapor or sublimation pressure,[2]; 343.21 K,157.52 ± 1.3 kPa
same,vapor or sublimation pressure,[2]; 343.36 K,158.57 ± 1.3 kPa
same,vapor or sublimation pressure,[2]; 343.46 K,160.01 ± 1.3 kPa
same,vapor or sublimation pressure,[2]; 343.67 K,161.1 ± 1.3 kPa
same,vapor or sublimation pressure,[2]; 344.09 K,162.7 ± 1.3 kPa
same,vapor or sublimation pressure,[2]; 344.46 K,164.2 ± 1.3 kPa
same,vapor or sublimation pressure,[2]; 344.67 K,165.28 ± 1.3 kPa
same,vapor or sublimation pressure,[2]; 344.88 K,166.78 ± 1.3 kPa
same,vapor or sublimation pressure,[2]; 345.05 K,168.02 ± 1.3 kPa
same,vapor or sublimation pressure,[2]; 345.26 K,169.24 ± 1.3 kPa
same,vapor or sublimation pressure,[2]; 345.47 K,170.37 ± 1.3 kPa
same,vapor or sublimation pressure,[2]; 345.84 K,171.92 ± 1.4 kPa
same,vapor or sublimation pressure,[2]; 345.96 K,173.2 ± 1.4 kPa
